# Structures can show the parent of a compound that is named as a salt. Where two headings read alike, the source gives them in different places.
# Assays:
# K562 cell line = assay: MTT assay: cytotoxicity against the K562 cell line; format: cell-based; details: Homo sapiens, K562 cells, 72 h, growth inhibition
# Procedure: Assessment of Cell Viability via MTT Assay: Cytotoxicity of compounds against the K562 cell line was assessed using the [3-(4,5-dimethylthiazol-2-yl)-2,5-diphenyl tetrazolium bromide] (MTT) assay. Fifteen thousand tumor cells were seeded into wells of flat-bottomed 96-well plates. An amount of 2 μL of a dilution series of each compound dissolved in DMSO was added to 198 μL of appropriate growth medium at three replicates per concentration and the plates were incubated in a 5% CO2 incubator at 37° C. After 72 h, the number of metabolically active cells was determined by MTT assay. Absorbance of each well was measured at 550 nm on a Tecan Sunrise reader. Dose-response curves for growth inhibition were generated as a percentage of untreated control. IC50 was determined by nonlinear regression (Prism, Graph Pad Software, Inc.).
# [1] = test system: Endothelial cells (HUVEC); assay: Neovessels formation inhibition (capillary tube formation on Matrigel); format: cell-based; details: Homo sapiens
# Procedure: The capability of compounds to inhibit the formation of capillaries was evaluated in vitro. Twenty thousand Endothelial cells (HUVEC) were placed on a Matrigel matrix and allowed to form capillary tubes in the presence or absence of the compounds overnight. The cells were stained with calcein AM, and the effect of the compounds on capillary tube formation was assessed using an inverted fluorescent microscope (Nikon). The reference compound used in this assay AVE-8063 is 3-amino-deoxycombretastatin A-4.
# purified tubulin = molecular target: T1, purified tubulin (Sus scrofa, UniProt P02550+P02554); assay: Tubulin polymerisation assay (CytoDYNAMIX Screen kit, absorbance at 340 nm); format: biochemical; details: for inhibition at 5 µM: 5 μM compound, 4 mg/ml tubulin, read-out: % Inhibition of tubulin polymerization at 5 μM; for IC50: tubulin polymerization
# T1 construct: purchased Cytoskeleton #BK006P
# Procedure: The polymerization of purified tubulin was monitored spectrophotometrically by the change in absorbance at 340 nm using the CytoDYNAMIX Screen kit (#BK006P, Cytoskeleton) according to the instructions of the manufacturer. […] The absorbance was measured at 1 minute intervals for 60 minutes. The test compound was added to a 4 mg/ml tubulin solution containing 10% glycerol and 1 mM GTP in Buffer 1 (Buffer 1: 80 mM PIPES; 2 mM MgCl2; 0.5 mM EGTA, pH 6.9). Increased absorbance indicates increase in microtubule formation from tubulin heterodimers.
# HUVEC = assay: Pre-established vessels disruption (capillary tubes on Matrigel); format: cell-based; details: Homo sapiens, HUVEC tubes formed 5 hours, then compounds overnight
# Procedure: To explore the effect of the compounds on pre-established vasculature, twenty thousand cells (HUVEC) were seeded and incubated over Matrigel for 5 hours to allow the capillary tubes to form. Then, compounds were added and incubated overnight. The disappearance of existing vasculature was monitored with fluorescent microscopy.
# [2] = HUVEC on Matrigel, compounds overnight, read-out: Neovessels Formation Inhibition Number of Branch Junctions IC50
# [3] = HUVEC on Matrigel, compounds overnight, read-out: Neovessels Formation Inhibition Total Tubule Length IC50
# [4] = read-out: Pre-established Vessels Disruption Number of Branch Junctions IC50
# [5] = read-out: Pre-established Vessels Disruption Total Tubule Length IC50
# T1 sequence (P02554 whole entry): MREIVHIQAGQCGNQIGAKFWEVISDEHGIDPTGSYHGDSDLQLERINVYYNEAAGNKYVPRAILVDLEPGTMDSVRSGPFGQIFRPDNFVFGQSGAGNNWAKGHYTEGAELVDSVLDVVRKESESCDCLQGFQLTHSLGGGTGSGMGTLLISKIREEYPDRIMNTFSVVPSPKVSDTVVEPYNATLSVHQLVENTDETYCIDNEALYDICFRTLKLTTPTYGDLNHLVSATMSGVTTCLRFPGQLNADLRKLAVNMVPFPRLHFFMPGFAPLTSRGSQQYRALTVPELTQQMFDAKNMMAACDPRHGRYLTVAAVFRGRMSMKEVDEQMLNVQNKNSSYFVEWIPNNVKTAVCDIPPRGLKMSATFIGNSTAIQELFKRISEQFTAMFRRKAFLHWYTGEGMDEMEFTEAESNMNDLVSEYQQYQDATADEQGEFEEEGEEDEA
# T1 sequence (P02550 whole entry): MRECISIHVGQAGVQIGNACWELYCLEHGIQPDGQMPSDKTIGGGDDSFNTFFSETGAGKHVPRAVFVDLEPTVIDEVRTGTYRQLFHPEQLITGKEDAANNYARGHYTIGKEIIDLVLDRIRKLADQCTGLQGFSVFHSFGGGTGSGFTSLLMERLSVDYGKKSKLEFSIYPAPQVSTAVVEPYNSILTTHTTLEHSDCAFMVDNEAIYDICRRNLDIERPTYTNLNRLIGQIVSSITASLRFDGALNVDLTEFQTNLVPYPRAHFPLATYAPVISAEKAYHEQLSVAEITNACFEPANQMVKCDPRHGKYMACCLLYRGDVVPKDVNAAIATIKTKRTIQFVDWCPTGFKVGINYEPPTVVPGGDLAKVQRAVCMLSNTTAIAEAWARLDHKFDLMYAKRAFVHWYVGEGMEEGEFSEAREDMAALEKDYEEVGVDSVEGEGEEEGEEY
inhibition at 5 µM (purified tubulin),IC50 (purified tubulin),SMILES,IC50 (K562 cell line),"IC50 [1, 2]","IC50 [1, 3]",IC50 (HUVEC; [4]),IC50 (HUVEC; [5]),"IC50 ([1]; HUVEC, read-out: Neovessels Formation Inhibition Number of Branch Junctions IC50 (nM))","IC50 ([1]; HUVEC, read-out: Neovessels Formation Inhibition Total Tubule Length IC50 (nM))"
61.9%,1850 nM,"CCCOc1c(OC)cc(Cc2cncc3c(O)c(OCC)ccc23)cc1OC [Compound 19, 4-(3,5-Dimethoxy-4-propoxybenzyl)-7-ethoxyisoquinolin-8-ol hydrochloride]",21.5 nM,14.4 nM,23 nM,6.33 nM,15.9 nM,,
,,"CCOc1ccc2c(C(=O)c3cc(OC)c(OCC(C)C)c(OC)c3)cncc2c1OC(C)=O [Compound 78, 7-Ethoxy-4-(4-isobutoxy-3,5-dimethoxybenzoyl)isoquinolin-8-yl acetate]",7.02 nM,,8.07 nM,11.1 nM,19.4 nM,,
,,"CCCOc1c(OC)cc(C(=O)c2cncc3c(N)c(OCC)ccc23)cc1OC [Compound 66, (8-Amino-7-ethoxyisoquinolin-4-yl)(3,5-dimethoxy-4-propoxyphenyl)methanone hydrochloride]",4.27 nM,2.23 nM,3.58 nM,3.76 nM,5.47 nM,,
65.8%,1090 nM,"CCOc1ccc2c(Cc3cc(OC)c(OC)c(OC)c3)cncc2c1OS(N)(=O)=O [Compound 21, 4-(3,4,5-Trimethoxybenzyl)-7-ethoxyisoquinolin-8-yl sulfamate hydrochloride]",36.9 nM,47.3 nM,52.8 nM,26.7 nM,60.5 nM,,
,,"CCOc1ccc2c(Cc3cc(OC)c(OC)c(OC)c3)cncc2c1NS(N)(=O)=O [Compound 8, 7-Ethoxy-4-(3,4,5-trimethoxy-benzyl)isoquinolin-8-yl]-sulfamide hydrochloride]",53.4 nM,100 nM,138 nM,,,,
71.3%,880 nM,"CCOc1ccc2c(C(=O)c3cc(OC)c(OC)c(OC)c3)cncc2c1N [Compound 29, (8-Amino-7-ethoxyisoquinolin-4-yl)(3,4,5-trimethoxyphenyl)methanone hydrochloride]",1.64 nM,1.04 nM,1.47 nM,1.78 nM,2.26 nM,,
59%,1310 nM,"CCOc1ccc2c(Cc3cc(OC)c(OCCC(C)C)c(OC)c3)cncc2c1O [Compound 33, 7-Ethoxy-4-(4-(isopentyloxy)-3,5-dimethoxybenzyl)isoquinolin-8-ol hydrochloride]",160 nM,,,,,,
44.5%,,"COc1ccc2c(C(=O)c3cc(OC)c(OC)c(OC)c3)cncc2c1 [Compound 28, (7-Methoxyisoquinolin-4-yl)(3,4,5-trimethoxyphenyl)methanone hydrochloride]",42.1 nM,,,,,,
69%,970 nM,"CCOc1cc(Cc2cncc3c(O)c(OCC)ccc23)cc(OC)c1OC [Compound 15, 4-(3-Ethoxy-4,5-dimethoxybenzyl)-7-ethoxyisoquinolin-8-ol hydrochloride]",105 nM,,,,,,
,,"CCOc1ccc2c(C(=O)c3cc(OC)c(OC)c(OC)c3)cncc2c1NC(=O)CN [Compound 112, 2-Amino-N-(7-ethoxy-4-(3,4,5-trimethoxybenzoyl)isoquinolin-8-yl)acetamide]",7.9 nM,16.4 nM,31.3 nM,68.5 nM,62.8 nM,,
63.4%,1500 nM,"C=CCOc1c(OC)cc(Cc2cncc3c(O)c(OCC)ccc23)cc1OC [Compound 32, 4-(4-(Allyloxy)-3,5-dimethoxybenzyl)-7-ethoxyisoquinolin-8-ol hydrochloride]",21.5 nM,12.4 nM,21.9 nM,20 nM,48.8 nM,,
61.4%,990 nM,"CCOc1ccc2c(Cc3cc(OC)c(OCC)c(OC)c3)cncc2c1N [Compound 18, 4-(4-Ethoxy-3,5-dimethoxybenzyl)-7-ethoxyisoquinolin-8-amine dihydrochloride]",13.2 nM,13 nM,18.7 nM,17.8 nM,32.1 nM,,
79.5%,900 nM,"CCCOc1c(OC)cc(Cc2cncc3c(N)c(OCC)ccc23)cc1OC [Compound 64, 4-(3,5-Dimethoxy-4-propoxybenzyl)-7-ethoxyisoquinolin-8-amine dihydrochloride]",11.2 nM,7.02 nM,9.54 nM,7.41 nM,14.7 nM,,
13%,,"CCCOc1c(OC)cc(C(=O)c2cncc3c(OC(C)=O)c(OCC)ccc23)cc1OC [Compound 65, 4-(3,5-Dimethoxy-4-propoxybenzoyl)-7-ethoxyisoquinolin-8-yl acetate]",3.81 nM,2.88 nM,4.23 nM,3.36 nM,9.92 nM,,
38.2%,3490 nM,"CCOc1ccc2c(C(=O)c3cc(OC)c(OCC)c(OC)c3)cncc2c1N [Compound 58, (8-amino-7-ethoxyisoquinolin-4-yl)(4-ethoxy-3,5-dimethoxyphenyl)methanone hydrochloride]",1.23 nM,0.53 nM,0.59 nM,0.99 nM,1.36 nM,,
21%,,"CCOc1ccc2c(Cc3cc(OC)c(OCC(F)(F)F)c(OC)c3)cncc2c1O [Compound 30, 4-(3,5-Dimethoxy-4-(2,2,2-trifluoroethoxy)benzyl)-7-ethoxyisoquinolin-8-ol hydrochloride]",63.8 nM,,,,,,
,1050 nM,"CCOc1ccc2c(Cc3cc(OC)c(OCC)c(OC)c3)cncc2c1O [Compound 14, 4-(4-Ethoxy-3,5-dimethoxybenzyl)-7-ethoxyisoquinolin-8-ol hydrochloride]",30.3 nM,31.1 nM,39.5 nM,,,,
,,"COc1ccc(N(C)c2nc(C)nc3ccccc23)cc1 [Azixa, reference compound]",2.15 nM,,,3.75 nM,6.01 nM,1.38 nM,2.16 nM
,,"CC(=O)O[C@H]1C(=O)[C@@]2(C)[C@H]([C@H](OC(=O)c3ccccc3)[C@]3(O)C[C@H](OC(=O)[C@H](O)[C@@H](NC(=O)c4ccccc4)c4ccccc4)C(C)=C1C3(C)C)[C@]1(OC(C)=O)CO[C@@H]1C[C@@H]2O [Taxol, reference compound]",6.9 nM,0.79 nM,7.16 nM,,,,

SMILES,inhibition at 5 µM (purified tubulin),IC50 (purified tubulin),IC50 (K562 cell line),"IC50 [1, 2]","IC50 [1, 3]",IC50 (HUVEC; [4]),IC50 (HUVEC; [5]),"IC50 ([1]; HUVEC, read-out: Neovessels Formation Inhibition Number of Branch Junctions IC50 (nM))","IC50 ([1]; HUVEC, read-out: Neovessels Formation Inhibition Total Tubule Length IC50 (nM))"
"COc1ccc(/C=C\c2cc(OC)c(OC)c(OC)c2)cc1O [Combretastatin, reference compound]",68.9%,,2.07 nM,,,,,,
"COc1ccc(/C=C\c2cc(OC)c(OC)c(OC)c2)cc1NC(=O)[C@@H](N)CO [AVE8062, reference compound]",59.8%,1790 nM,7.78 nM,13.9 nM,15.4 nM,32.5 nM,52.9 nM,,
"CCOc1ccc2c(Cc3cc(OC)c(OCC(C)C)c(OC)c3)cncc2c1O [Compound 20, 4-(4-Isobutoxy-3,5-dimethoxybenzyl)-7-ethoxyisoquinolin-8-ol hydrochloride]",56.9%,1520 nM,20.8 nM,24.9 nM,31.9 nM,22.3 nM,31.7 nM,,
"CCOc1ccc2c(Cc3cc(OC)c(OCC(C)C)c(OC)c3)cncc2c1N [Compound 31, 4-(4-Isobutoxy-3,5-dimethoxybenzyl)-7-ethoxyisoquinolin-8-amine dihydrochloride]",55.4%,1540 nM,37 nM,,,,,,
"CCCCOc1c(OC)cc(Cc2cncc3c(O)c(OCC)ccc23)cc1OC [Compound 38, 4-(4-Butoxy-3,5-dimethoxybenzyl)-7-ethoxyisoquinolin-8-ol hydrochloride]",67.4%,1110 nM,30.4 nM,,,,,,

# Reference: patent US20130131018A1, “SUBSTITUTED ISOQUINOLINES AND THEIR USE AS TUBULIN POLYMERIZATION INHIBITORS” (Exonhit S.A., priority 2010, published 2013)
